Experimental data as given in ChEMBL document CHEMBL4346754, “Further exploration of an N-aryl phenoxyethoxy pyridinone-based series of mGlu3 NAMs: Challenging SAR, enantiospecific activity and in vivo efficacy” (Bioorg Med Chem Lett, 2019).
The source made the active and inactive calls. No cut-off for these calls is given here.

What was measured:
[1] = Unbound brain to plasma concentration ratio in rat; assay type: ADME, cell-free; settings: read-out: K(p,uu,brain)
[2] = molecular target: Metabotropic glutamate receptor 3 (Rattus norvegicus) (UniProt P31422); assay: Negative allosteric modulation of rat mGlu3R expressed in HEK293 cells co-expressing Galpha15 assessed as decrease in glutamate-induced calcium mobilization relative to glutamate; assay type: functional, cell-based; design: concentration or dose not given beside the values
[3] = Fraction unbound in rat plasma; assay type: ADME, cell-free
[4] = Fraction unbound in rat brain homogenate; assay type: ADME, tissue-based
[5] = molecular target: T1, Metabotropic glutamate receptor 3 (Rattus norvegicus, UniProt P31422); assay: Negative allosteric modulation of rat mGlu3R expressed in HEK cells harboring GIRK assessed as reduction in glutamate-induced thallium flux; assay type: cell-based
[6] = Permeability coefficient, Kp in rat brain; assay type: ADME, tissue-based
[7] = Drug level in mouse plasma at 10 mg/kg, ip; assay type: ADME, organism-based; settings: in vivo
Mus musculus [8] = assay: Anti-anxiety activity in C57BL/6J mouse assessed as increase in total number of open arm entries at 10 mg/kg, ip treated for 15 mins by elevated zero maze assay; assay type: functional, organism-based
[9] = Half life in iv dosed rat; assay type: ADME, organism-based; settings: in vivo
Mus musculus [10] = assay: Anti-anxiety activity in C57BL/6J mouse assessed as increase in total time spent in open arms at 10 mg/kg, ip treated for 15 mins by elevated zero maze assay; assay type: functional, organism-based
[11] = Drug level in mouse brain at 10 mg/kg, ip; assay type: ADME, organism-based; settings: in vivo, read-out: Ct
Mus musculus [12] = assay: Anti-anxiety activity in C57BL/6J mouse assessed as reduction in number of marbles buried at 10 mg/kg, ip treated for 15 mins by marble burying assay; assay type: functional, organism-based
Mus musculus [13] = assay: Antidepressant activity in ip dosed C57BL6/J mouse as […] in immobility time by tail suspension test; assay type: functional; settings: read-out: MED
[14] = MRT in iv dosed rat; assay type: ADME, organism-based; settings: in vivo
[15] = Plasma clearance in iv dosed rat; assay type: ADME, organism-based
Mus musculus [16] = assay: Antidepressant activity in ip dosed C57BL6/J mouse as total time of immobile by tail suspension test relative to control; assay type: functional, organism-based
[17] = Brain to plasma permeability coefficient, Kp in mouse at 10 mg/kg, ip; assay type: ADME, organism-based
[18] = Volume of distribution at steady state in iv dosed rat; assay type: ADME, organism-based; settings: in vivo, read-out: Vdss
Mus musculus [19] = assay: Anti-anxiety activity in C57BL/6J mouse assessed as increase in total number of open arm entries at 15 mg/kg, ip treated for 15 mins by elevated zero maze assay; assay type: functional, organism-based
Mus musculus [20] = assay: Anti-anxiety activity in C57BL/6J mouse assessed as reduction in number of marbles buried at 15 mg/kg, ip treated for 15 mins by marble burying assay; assay type: functional, organism-based
Mus musculus [21] = assay: Anti-anxiety activity in C57BL/6J mouse assessed as increase in total time spent in open arms at 15 mg/kg, ip treated for 15 mins by elevated zero maze assay; assay type: functional, organism-based
[22] = molecular target: T1, Metabotropic glutamate receptor 3; assay: Negative allosteric modulation of rat mGlu3R expressed in HEK cells harboring GIRK assessed as reduction in glutamate-induced thallium flux preincubated for 5 mins followed by glutamate addition and measured after 2 mins by BTC-AM-dye based fluorescence assay; assay type: cell-based

T1 sequence (P31422 whole entry): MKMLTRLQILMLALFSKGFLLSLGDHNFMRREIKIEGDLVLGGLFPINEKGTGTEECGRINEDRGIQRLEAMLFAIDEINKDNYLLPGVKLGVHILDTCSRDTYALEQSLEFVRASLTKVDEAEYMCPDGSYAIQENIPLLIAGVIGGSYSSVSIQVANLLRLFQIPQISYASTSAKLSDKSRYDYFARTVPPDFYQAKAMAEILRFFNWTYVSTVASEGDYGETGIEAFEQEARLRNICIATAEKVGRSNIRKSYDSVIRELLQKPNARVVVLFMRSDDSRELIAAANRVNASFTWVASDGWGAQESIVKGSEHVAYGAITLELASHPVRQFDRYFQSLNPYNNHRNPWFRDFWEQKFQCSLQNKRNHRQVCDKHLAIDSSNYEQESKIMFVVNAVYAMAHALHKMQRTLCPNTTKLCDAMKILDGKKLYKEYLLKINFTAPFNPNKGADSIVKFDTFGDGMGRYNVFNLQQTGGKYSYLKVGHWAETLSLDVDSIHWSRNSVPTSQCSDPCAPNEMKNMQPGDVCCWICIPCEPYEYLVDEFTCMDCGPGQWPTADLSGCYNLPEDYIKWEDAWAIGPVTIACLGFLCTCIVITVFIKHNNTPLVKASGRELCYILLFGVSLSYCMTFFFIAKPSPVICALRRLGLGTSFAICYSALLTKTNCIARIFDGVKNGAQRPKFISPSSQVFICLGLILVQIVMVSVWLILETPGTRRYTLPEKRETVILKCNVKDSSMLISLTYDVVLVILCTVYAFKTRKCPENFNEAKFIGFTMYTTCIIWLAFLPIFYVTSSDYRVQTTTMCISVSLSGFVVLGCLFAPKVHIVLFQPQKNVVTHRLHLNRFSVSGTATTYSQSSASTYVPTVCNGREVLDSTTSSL
Metabotropic glutamate receptor 3 (Rattus norvegicus), sequence (P31422 23-879 limits assumed): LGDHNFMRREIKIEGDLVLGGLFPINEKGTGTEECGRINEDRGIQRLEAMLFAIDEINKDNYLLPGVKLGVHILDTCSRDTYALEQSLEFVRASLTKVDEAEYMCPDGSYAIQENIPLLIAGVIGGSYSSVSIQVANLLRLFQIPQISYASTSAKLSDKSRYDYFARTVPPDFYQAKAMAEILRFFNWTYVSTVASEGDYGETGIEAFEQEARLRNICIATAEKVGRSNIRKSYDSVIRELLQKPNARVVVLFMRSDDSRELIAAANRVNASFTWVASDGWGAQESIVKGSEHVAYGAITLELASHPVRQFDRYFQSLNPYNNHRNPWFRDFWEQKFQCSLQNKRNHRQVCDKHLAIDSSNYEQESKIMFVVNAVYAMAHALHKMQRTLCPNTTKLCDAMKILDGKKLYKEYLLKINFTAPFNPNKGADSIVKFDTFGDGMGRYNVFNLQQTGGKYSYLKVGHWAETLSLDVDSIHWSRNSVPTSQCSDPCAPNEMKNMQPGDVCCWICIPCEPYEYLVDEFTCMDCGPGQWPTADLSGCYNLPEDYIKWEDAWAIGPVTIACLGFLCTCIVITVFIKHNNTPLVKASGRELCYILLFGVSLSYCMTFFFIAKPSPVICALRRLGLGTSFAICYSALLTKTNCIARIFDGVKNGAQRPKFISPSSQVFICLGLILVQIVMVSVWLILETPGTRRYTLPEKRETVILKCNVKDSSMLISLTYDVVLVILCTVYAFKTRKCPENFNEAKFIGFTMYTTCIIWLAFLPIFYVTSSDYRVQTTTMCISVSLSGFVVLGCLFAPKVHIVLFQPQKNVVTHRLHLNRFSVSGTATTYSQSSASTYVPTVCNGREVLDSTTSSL

| Compound | Activity [2] [%] | IC50 [5] [µM] | further results |
| --- | --- | --- | --- |
| Cc1cccc(-n2ccc(OC[C@@H](C)Oc3ccccc3)cc2=O)c1 | 4.7 | > 10 |  |
| O=c1cc(OCC2CCc3ccccc3O2)ccn1-c1ccc(F)cc1 (racemic) | -1.7 | 7.7 |  |
| Cc1cccc(-n2ccc(OCC(C)COc3ccccc3)cc2=O)c1 (racemic) [listing 1 of 2 here] | 4.6 |  |  |
| CN(C)CCCC1(c2ccc(F)cc2)OCc2cc(C#N)ccc21 (configuration not stated) |  |  | Activity (Mus musculus [19]): Active; Activity (Mus musculus [20]): Active; Activity (Mus musculus [16]): inactive; Activity (Mus musculus [21]): Active |
| C[C@@H](COc1ccccc1)Oc1ccn(-c2ccc(F)cc2)c(=O)c1 | 32 | > 10 |  |
| C[C@H](COc1ccn(-c2ccc(F)cc2)c(=O)c1)Oc1ccccc1 | 1.3 | > 10 |  |
| COc1ccc(-n2ccc(O[C@H](C)COc3ccccc3)cc2=O)cc1 | 19 | > 10 |  |
| Cc1cccc(-n2ccc(OCC(Oc3ccccc3)c3ccccc3)cc2=O)c1 (configuration not stated) | 14 | > 10 |  |
| Cc1cccc(-n2ccc(OCC(C)COc3ccccc3)cc2=O)c1 (single isomer, unassigned; form 1) [listing 2 of 2 here] | -6.6 |  |  |
| Cc1cccc(-n2ccc(OCC(C)COc3ccccc3)cc2=O)c1 (single isomer, unassigned; form 2) [listing 2 of 2 here] | -7.3 |  |  |
| C[C@@H](COc1ccn(-c2ccc(F)cc2)c(=O)c1)Oc1ccccc1 | -5.7 |  | IC50 [22]: 1.28 to 1.3 µM; half-life [9]: 0.39 h; minimal effective dose (Mus musculus [13]): 10 mg/kg; MRT [14]: 0.448 h; clearance [15]: 76.3 mL/min/kg; Vd [18]: 2.05 L/kg |
| O=c1cc(OCC(Oc2ccccc2)c2ccccc2)ccn1-c1ccc(F)cc1 (configuration not stated) | 4.9 | > 10 |  |

Now from value to compound, other results behind:

| Activity [2] [%] | IC50 [5] [µM] | Compound | further results |
| --- | --- | --- | --- |
| -11 | 0.52 | C[C@H](COc1ccccc1)Oc1ccn(-c2cccc(Cl)c2)c(=O)c1 | Kp uu [1]: 0.44; fraction unbound [3]: 0.045; fraction unbound [4]: 0.014; Kp [6]: 1.42 |
| -4.3 | 1.5 | Cc1cccc(-n2ccc(O[C@H](C)COc3ccccc3)cc2=O)c1 | concentration [7]: 272 nM; Activity (Mus musculus [8]): Active; half-life [9]: 2 h; Kp uu [1]: 0.53; Activity (Mus musculus [10]): Active; concentration [11]: 386 nM; fraction unbound [3]: 0.055; Activity (Mus musculus [12]): Active; minimal effective dose (Mus musculus [13]): 10 mg/kg; MRT [14]: 2.05 h; fraction unbound [4]: 0.018; clearance [15]: 31 mL/min/kg; Activity (Mus musculus [16]): inactive; Kp [6]: 1.6; Kp [17]: 1.42; Vd [18]: 3.82 L/kg |
| 36 | 0.92 | CC(COc1ccccc1)COc1ccn(-c2ccc(Cl)cc2)c(=O)c1 (single isomer, unassigned) | fraction unbound [3]: 0.01; fraction unbound [4]: 0.008; Kp [6]: 1.6 |
| -7.9 | 2.7 | C[C@H](COc1ccccc1)Oc1ccn(-c2ccc(Cl)cc2)c(=O)c1 |  |
| -7.4 | 1.3 | Cc1cccc(-n2ccc(OC[C@H](C)Oc3ccccc3)cc2=O)c1 |  |
| -0.77 | 4.1 | Cc1cccc(-n2ccc(OCC3CCc4ccccc4O3)cc2=O)c1 (racemic) |  |
|  | 1.3 | Cc1cccc(-n2ccc(OCC(C)COc3ccccc3)cc2=O)c1 (single isomer, unassigned; form 2) [listing 1 of 2 here] |  |
|  | 3.1 | Cc1cccc(-n2ccc(OCC(C)COc3ccccc3)cc2=O)c1 (single isomer, unassigned; form 1) [listing 1 of 2 here] |  |
| 6.6 | 3.2 | CC(COc1ccccc1)COc1ccn(-c2ccc(F)cc2)c(=O)c1 (racemic) |  |
|  | 3.2 | Cc1cccc(-n2ccc(OCC(C)COc3ccccc3)cc2=O)c1 (racemic) [listing 2 of 2 here] |  |
| -4.4 | 1.4 | CC(COc1ccccc1)COc1ccn(-c2cccc(Cl)c2)c(=O)c1 (single isomer, unassigned) |  |
| -2.2 | 3 | C[C@H](COc1ccccc1)Oc1ccn(-c2ccc(F)cc2)c(=O)c1 |  |
